# Measurements: US6066642A, “Dihydropyridine-, pyridine-, benzopyran-4-one- and triazoloquinazoline derivative, their preparation and their use as adenosine receptor antagonists” (priority 1998, dated 2000)
# Like-named read-outs stand apart in the source and are kept apart here.
# Assays:
# A2a receptors = biological target: T1, A2a receptors (Rattus norvegicus, UniProt P30543); test: radioligand binding, displacement of specific [3H]CGS 21680 binding in rat striatal membranes; settings: for inhibition at 100 µM: 10^-4 M
# T1 construct: Displacement of specific [^3 H]; from tissue; host or cells: rat striatal membranes
# Experimental: ^b Displacement of specific [^3 H]
# or as a percentage of specific binding displaced at 100 μM.
# A1 receptors = biological target: T2, A1 receptors (Rattus norvegicus, UniProt P25099); test: biochemical; format: binding; settings: for inhibition at 100 µM: 10^-4 M, read-out: displacement of specific binding rA1
# T2 sequence (P25099 1-326): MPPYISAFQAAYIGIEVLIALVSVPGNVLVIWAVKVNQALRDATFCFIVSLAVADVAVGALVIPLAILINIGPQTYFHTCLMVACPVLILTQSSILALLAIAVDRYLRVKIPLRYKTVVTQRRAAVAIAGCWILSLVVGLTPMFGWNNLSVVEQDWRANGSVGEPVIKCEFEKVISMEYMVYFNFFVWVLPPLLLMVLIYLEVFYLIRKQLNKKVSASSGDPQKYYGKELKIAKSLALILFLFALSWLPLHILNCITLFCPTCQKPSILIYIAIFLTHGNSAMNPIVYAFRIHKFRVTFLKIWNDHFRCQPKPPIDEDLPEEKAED
# Experimental: ^a Displacement of specific [^3 H] PIA binding in rat brain
# percentage of specific binding displaced at 100 μM.
# human A3 receptors = biological target: T3, human A3 receptors (Homo sapiens, UniProt P0DMS8); test: radioligand binding, displacement of specific [125I]AB-MECA binding at human A3 receptors expressed in HEK-293 cells; settings: for Ki: [125I]AB-MECA; for inhibition at 100 µM: 10^-4 M
# T3 construct: expressed in transfected cells; host or cells: HEK-293 cells (membranes)
# T3 sequence (P0DMS8 1-318): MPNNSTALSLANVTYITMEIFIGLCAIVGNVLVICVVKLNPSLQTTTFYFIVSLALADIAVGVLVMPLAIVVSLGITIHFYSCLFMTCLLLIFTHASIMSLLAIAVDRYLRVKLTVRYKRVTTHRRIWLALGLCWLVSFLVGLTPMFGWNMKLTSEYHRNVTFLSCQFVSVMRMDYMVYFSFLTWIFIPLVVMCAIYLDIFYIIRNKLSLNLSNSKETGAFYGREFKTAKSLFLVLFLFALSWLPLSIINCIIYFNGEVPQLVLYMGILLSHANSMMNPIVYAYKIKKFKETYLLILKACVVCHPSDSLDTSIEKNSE
# Experimental: A3 receptors expressed in HEK293 cells, in membranes, expressed as
# binding displaced at 100 μM.
# [1] = Table 3, [3H]PIA, rat brain membranes, read-out: Ki rA1
# [2] = Table 3, HEK-293 membranes, read-out: Ki hA3
# [3] = Table 3, read-out: displacement of specific binding rA2a
# [4] = Table 5, HEK-293 membranes, read-out: Ki hA3
# [5] = Table 5, [3H]CGS 21680, rat striatal membranes, read-out: Ki rA2a
# [6] = Table 5, read-out: displacement of specific binding rA2a
# [7] = Table 6, [3H]PIA, rat brain membranes, read-out: K2 (rA1)
# [8] = Table 6, read-out: % inhibition hA3
# [9] = Table 6, [3H]CGS 21680, rat striatal membranes, read-out: K2 (rA2a)
# T1 sequence (P30543 whole entry): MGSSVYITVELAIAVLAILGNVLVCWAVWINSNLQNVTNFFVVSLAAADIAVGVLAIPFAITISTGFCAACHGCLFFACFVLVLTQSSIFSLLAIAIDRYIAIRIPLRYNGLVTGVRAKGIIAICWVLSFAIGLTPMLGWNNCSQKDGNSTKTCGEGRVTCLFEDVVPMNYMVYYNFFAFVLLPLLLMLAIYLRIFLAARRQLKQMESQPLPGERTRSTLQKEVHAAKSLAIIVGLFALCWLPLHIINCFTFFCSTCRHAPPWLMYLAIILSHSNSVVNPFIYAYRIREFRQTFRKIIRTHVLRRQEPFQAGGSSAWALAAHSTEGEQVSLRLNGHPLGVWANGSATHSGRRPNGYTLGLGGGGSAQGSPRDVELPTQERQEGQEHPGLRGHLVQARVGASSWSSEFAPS
smiles,measurement,setting,value
"CCOC(=O)C1=C(C)NC(C)=C(C(=O)OC)C1c1ccc2c(c1)OCO2 (racemic) [Compound 73, 3-methyl-5-ethyl-2,6-dimethyl-4-[3,4-(methylenedioxy)phenyl]-1,4(R,S)-dihydropyridine-3,5-dicarboxylate]",Ki,"A2a receptors; Table 9, [3H]CGS 21680, rat striatal membranes, read-out: Ki rA2A",5.27 µM
same,Ki,"A1 receptors; Table 9, [3H]PIA, rat brain membranes, read-out: Ki rA1",3.66 µM
same,Ki,"human A3 receptors; Table 9, HEK membranes, read-out: Ki hA3",4.58 µM
COc1ccc2c(c1)C(=O)[C@H](O)[C@@H](C#Cc1ccccc1)O2 (relative stereo) [Compound 16],inhibition at 100 µM,"A2a receptors; Table 4, read-out: displacement of specific binding rA2a",< 10%
same,Ki,"A1 receptors; Table 4, [3H]PIA, rat brain membranes, read-out: Ki rA1",50.3 ± 17 µM
same,rA1/hA3,human A3 receptors,6.2
same,Ki,"human A3 receptors; Table 4, HEK-293 membranes, read-out: Ki hA3",8.17 µM
CCOC(=O)c1c(C)nc(-c2ccccc2)c(C(=O)OCc2ccccc2)c1C#Cc1ccccc1 [B],inhibition at 100 µM,"A2a receptors; Table 11, read-out: % inhibition rA2A",43 ± 2%
same,Ki,"A1 receptors; Table 11, [3H]PIA, rat brain membranes, read-out: Ki rA1",7.01 ± 1.98 µM
same,rA1/hA3,human A3 receptors,2.6
"CCCOc1cc(OCCC)c2c(=O)c(OCCC)c(-c3ccccc3)oc2c1 [Compound 4, 3,5,7-Tripropyloxyflavone]",Ki,A1 receptors; [1],1.1 ± 0.2 µM
same,Ki,human A3 receptors; [2],0.317 µM
"CCOc1ccc(-c2oc3cc(OCC)cc(O)c3c(=O)c2OCC)c(OCC)c1 [Compound 7, 2',4',3,7-Tetraethoxy-5-hydroxymorin]",inhibition at 100 µM,A2a receptors; [3],< 10%
same,inhibition at 100 µM,A1 receptors; Table 3,< 10%
same,Ki,human A3 receptors; [2],4.83 ± 1.4 µM
same,rA1/hA3,"human A3 receptors; Table 3, ratio of Ki",> 40
"COc1cc(OC)c(-c2oc3ccccc3c(=O)c2O)c(OC)c1 [Compound 9, reference compound]",inhibition at 100 µM,A2a receptors; [3],< 10%
same,Ki,A1 receptors; [1],7.32 ± 1.36 µM
same,Ki,human A3 receptors; [2],50.1 ± 7.8 µM
same,rA1/hA3,"human A3 receptors; Table 3, ratio of Ki",0.15
"COc1ccc2oc(C#Cc3ccccc3)c(O)c(=O)c2c1 [Compound 10, 2-phenylacetylenyl-3-hydroxy-6-methoxyflavone]",inhibition at 100 µM,A2a receptors; [3],< 10%
same,inhibition at 100 µM,A1 receptors; Table 3,< 10%
same,rA1/hA3,human A3 receptors,> 8
"COc1c2ccoc2cc2oc(C=O)cc(=O)c12 [Compound 18, 4-Methoxy-7-formyl-5H-furo [3,2-g][1]-benzopyrano-5-one]",inhibition at 100 µM,"A2a receptors; Table 5, read-out: % of specific binding displaced rA2a",25 ± 8%
same,inhibition at 100 µM,A1 receptors; Table 5,< 10%
same,Ki,human A3 receptors; [4],88.9 ± 27.1 µM
same,rA1/hA3,"human A3 receptors; Table 5, ratio of Ki",> 2
"COc1c2ccoc2cc2oc(/C=C/c3ccccc3)cc(=O)c12 [Compound 19, 4-methyloxy-7-trans-styryl-visnagin]",Ki,A2a receptors; [5],11.5 ± 1.3 µM
same,Ki,"A1 receptors; Table 5, [3H]PIA, rat brain membranes, read-out: Ki rA1",32.6 ± 10.5 µM
same,Ki,human A3 receptors; [4],8.28 ± 2.69 µM
same,rA1/hA3,"human A3 receptors; Table 5, ratio of Ki",0.37
"COc1c2ccoc2cc2oc(/C=C/C=Cc3ccccc3)cc(=O)c12 [Compound 22, 4-methoxy-7-phenylbutadienyl visnagin]",inhibition at 100 µM,A2a receptors; [6],< 10%
same,inhibition at 100 µM,A1 receptors; Table 5,< 10%
same,inhibition at 100 µM,"human A3 receptors; Table 5, read-out: displacement of specific binding hA3",< 10%
"CCOc1c2ccoc2cc2oc(/C=C/C=Cc3ccccc3)cc(=O)c12 [Compound 23, 4-ethoxy-7-phenylbutadienyl visnagin]",Ki,A2a receptors; [5],167 µM
same,inhibition at 100 µM,A1 receptors; Table 5,< 10%
same,rA1/hA3,"human A3 receptors; Table 5, ratio of Ki",> 4
"COc1c2ccoc2cc2oc(C=Nc3ccccc3)cc(=O)c12 [Compound 24, 4-methoxy-7-(CH=N-phenyl)visnagin]",inhibition at 100 µM,A2a receptors; [6],< 10%
same,inhibition at 100 µM,A1 receptors; Table 5,< 10%
same,rA1/hA3,"human A3 receptors; Table 5, ratio of Ki",> 20
"O=c1cc(-c2ccccc2)oc2cc(O)ccc12 [Compound 26, reference compound]",Ki,"A2a receptors; striatal membranes, read-out: K2 (rA2a)",2.68 ± 0.68 µM
same,Ki,A1 receptors; [7],3.03 ± 0.49 µM
same,inhibition at 100 µM,human A3 receptors; [8],41 ± 7%
"COc1ccc(-c2cc(=O)c3ccc(O)cc3o2)cc1OC [Compound 27, reference compound]",Ki,A2a receptors; [9],35.4 ± 7.3 µM
same,Ki,A1 receptors; [7],18.8 ± 3.6 µM
same,inhibition at 100 µM,human A3 receptors; [8],32 ± 4%
"O=c1cc(-c2ccc(O)cc2)oc2cc(O)cc(O)c12 [Compound 28, apigenin, reference compound]",Ki,A2a receptors; [9],7.58 ± 1.23 µM
same,Ki,A1 receptors; [7],3 ± 0.29 µM
same,inhibition at 10 µM,"human A3 receptors; Table 6, 10^-5 M, read-out: % inhibition hA3",63 ± 1%
"COc1ccc(-c2cc(=O)c3c(O)cc(C)cc3o2)cc1 [Compound 29, reference compound]",Ki,A2a receptors; [9],28 ± 7.35 µM
same,Ki,"A1 receptors; brain membranes, read-out: K2 (rA1)",3.4 ± 0.35 µM
same,Ki,"human A3 receptors; Table 6, HEK-293 membranes, read-out: K2 (hA3)",6.7 ± 1.78 µM
